The source of these data is patent US20090172831A1, “Methods for the production of plants resistant to HPPD herbicides” (Syngenta Limited, priority 2000, published 2009).

Bounds are passed on as bounds.

The target in one experiment is T1, Arabidopsis HPPD (Arabidopsis thaliana, UniProt P93836).
T1 construct: made in house; host or cells: E. coli BL21 (DE3) codon+ RP
T1 sequence (P93836 1-445): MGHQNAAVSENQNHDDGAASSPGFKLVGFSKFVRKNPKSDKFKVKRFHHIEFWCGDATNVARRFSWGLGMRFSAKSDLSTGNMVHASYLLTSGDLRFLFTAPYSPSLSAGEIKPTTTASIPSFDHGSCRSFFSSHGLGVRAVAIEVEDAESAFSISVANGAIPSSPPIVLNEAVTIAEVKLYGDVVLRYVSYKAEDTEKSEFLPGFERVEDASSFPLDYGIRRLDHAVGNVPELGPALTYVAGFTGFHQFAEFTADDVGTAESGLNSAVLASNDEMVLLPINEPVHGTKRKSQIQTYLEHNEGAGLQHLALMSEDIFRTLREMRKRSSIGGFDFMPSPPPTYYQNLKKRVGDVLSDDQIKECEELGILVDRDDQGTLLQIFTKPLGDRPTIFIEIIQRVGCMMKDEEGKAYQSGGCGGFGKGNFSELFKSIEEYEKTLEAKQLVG
Nature of the experiment: Dissociation of enzyme/inhibitor complexes by exchange with 14C-labelled inhibitor (koff; Kd = koff/kon). It is filed as binding. Here is the method: It will be appreciated that many suitable methods known in the art for determining such low koff values are suitable for working the current invention. These include measuring rates of exchange of radio or otherwise labelled inhibitors either with or away from the enzyme inhibitor complex. For example enzyme inhibitor complexes can readily be prepared by incubating HPPD preparations with labelled or unlabelled inhibitor and then, after suitable periods, optionally rapidly separating the thus formed enzyme inhibitor complex from excess inhibitor by any suitable method such as ultrafiltration, binding to filters or exchange down a gel filtration column. Exchange reactions with the, thus prepared enzyme inhibitor complex is then initiated by addition of, as appropriate, excess labelled or unlabelled inhibitor. […] Many methods such as radiometric, fluorimetric, NMR, fluorescence depolarisation, EPR, Mossbauer, UV/VIS spectrophotometry etc. or phonon resonance can, in principle, be used to monitor the enzyme/ligand exchange reactions and, particularly in this case where the enzyme contains an iron atom at the ligand binding site. Optionally, the monitoring method may be continuous (as, for example, with scintillation proximity/bead-based methods) or, discontinuous, based upon collection of data at various timepoints wherein samples are removed and the bound and unbound label components rapidly separated and quantitated.
(§1) Values of koff can suitably be calculated by computer fitting based upon is numerical integration of the exchange data along with information on the active-site concentration of HPPD and upon kon values obtained as described below. […] In any event, koff values are always here calculated from the rate of the major slow exchange reaction.
^14C mesotrione is of specific activity 1.12 GBq/mmol. […] Following this initial binding reaction, exchange reactions are initiated by addition of cold mesotrione to a final concentration of 60 μM and 200 μl aliquots removed at various times to rapid chromatography down a NAP5 gel filtration column equilibrated in 50 mM BTP at pH 7 containing 0.1 M KCl, separation into fractions containing protein-bound or free radiolabel and liquid scintillation counting.
Nevertheless, here, for practical purposes, koff values are always here calculated from the rate of the major slow exchange reaction.
Not all test inhibitors are readily available in a radiolabelled form.

The target in another experiment is Wheat HPPD (Triticum aestivum, UniProt A0A3B6NLC6). Described as above. It is filed as binding.
Source text: (§2) Herbicidal inhibitors of HPPD are found here to have generally low values of koff (in the range less than 0.0003 s^−1, often less than 0.000001 s^−1). It will be appreciated that many suitable methods known in the art for determining such low koff values are suitable for working the current invention. These include measuring rates of exchange of radio or otherwise labelled inhibitors either with or away from the enzyme inhibitor complex. For example enzyme inhibitor complexes can readily be prepared by incubating HPPD preparations with labelled or unlabelled inhibitor and then, after suitable periods, optionally rapidly separating the thus formed enzyme inhibitor complex from excess inhibitor by any suitable method such as ultrafiltration, binding to filters or exchange down a gel filtration column. Exchange reactions with the, thus prepared enzyme inhibitor complex is then initiated by addition of, as appropriate, excess labelled or unlabelled inhibitor. HPPD preparations suitable for use in the methods of the current invention are relatively unpurified, buffer-exchanged, supernatant fractions of spun crude lysates of E. coli strains engineered to express the HPPD enzyme of interest at a level of, typically, about 0.25-10% of the total soluble protein. Many methods such as radiometric, fluorimetric, NMR, fluorescence depolarisation, EPR, Mossbauer, UV/VIS spectrophotometry etc. or phonon resonance can, in principle, be used to monitor the enzyme/ligand exchange reactions and, particularly in this case where the enzyme contains an iron atom at the ligand binding site. Optionally, the monitoring method may be continuous (as, for example, with scintillation proximity/bead-based methods) or, discontinuous, based upon collection of data at various timepoints wherein samples are removed and the bound and unbound label components rapidly separated and quantitated.
as §1, with “reaction. It will be appreciated that within the scope of the current invention many methods of making the desired kinetic comparisons are possible without explicit or rigorous determination of off rates but, based upon the same underlying principle, will achieve the same selection result.” for “reaction.”
The dissociation rates (off rates) of inhibitors selected from Formula 1 and/or 2 and/or 3 and/or 4 from the complexes that they form with test and control HPPD enzymes are suitably measured in a number of ways. Thus, for example, the rates of dissociation of mesotrione, a compound selected from Formula 1 and of the diketonitrile of isoxaflutole, a compound selected from Formula 3 from their respective complexes with, test, wheat HPPD and with, control, Arabidopsis HPPD are compared. The method and results from a typical test are as follows.
^14C mesotrione is of specific activity 1.12 GBq/mmol. This is ˜95% pure radiochemically by TLC and based upon the proportion of material tight-binding to HPPD. Arabidopsis and, (test), wheat HPPD are each diluted to a concentration of ˜0.45 and 0.54 μM, respectively into 1.6 ml of 50 mM Bis-Tris propane buffer at pH 7.0 containing 25% glycerol, 25 mM sodium ascorbate and 3 mg/l of bovine catalase (Sigma C3155˜50,000 units/mg) containing […] ^14C mesotrione and left to react at 25 C for 2.5-3 h. Following this initial binding reaction, exchange reactions are initiated by addition of cold mesotrione to a final concentration of 60 μM and 200 μl aliquots removed at various times to rapid chromatography down a NAP5 gel filtration column equilibrated in 50 mM BTP at pH 7 containing 0.1 M KCl, separation into fractions containing protein-bound or free radiolabel and liquid scintillation counting. […]

Another experiment concerns the target P. fluorescens HPPD (Pseudomonas fluorescens, UniProt A0ACG8AE61). The description is as above. It counts as binding.
Source text: as §2
as §1, with “reaction. It will be appreciated that within the scope of the current invention many methods of making the desired kinetic comparisons are possible without explicit or rigorous determination of off rates but, based upon the same underlying principle, will achieve the same selection result. […]” for “reaction.”
Not all test inhibitors are readily available in a radiolabelled form. A more general method of measuring off rates is to first form the complex with unlabelled test inhibitor, to rapidly exchange the complex free of excess unlabelled inhibitor and to then start the exchange reaction by addition of an excess of a standard labelled inhibitor, the kinetic properties of which are already known. The reaction is then monitored and the relative proportions of bound and unbound label determined at various times. […] The latter is the method of choice when the rate of exchange is fast (t½<3 h).
In, variants of the above methods, off rates are measured either in the presence or absence of ˜25% v/v glycerol. In the presence of glycerol values obtained are generally ˜1.5-3× slower than in its absence although sometimes the change is outside this range or, even, in the other direction. Further examples of data obtained are depicted in the following Table 3.
Crude Extracts of recombinant E. coli strains expressing, in the one case, a control HPPD (from Arabidopsis) and, in the other, one or more test HPPD sequences are prepared as described in the preceding example. The titre of active sites and enzyme activity are also defined and measured as described in the preceding examples. […]

The target in a further experiment is Avena HPPD (Avena sativa, UniProt A0ACD5V6K6). Nature of the experiment: In vitro measurements of Avena HPPD (dissociation rate constants, Ki). It is filed as binding. Particulars: read-out: rate constants governing dissociation of the complexes.
Experiment [1] has as its system tobacco plants transformed to express wheat HPPD. Nature of the experiment: Tolerance of tobacco transformed with wheat HPPD to herbicides. It counts as in vivo. Particulars: in vivo.
Source text: These constructs were all transformed into Agrobacterium tumefaciens strain LBA4404, which in turn was used to transform tobacco, using methodology described previously.
Explants (i.e. a leaf plus short segment of stem containing the auxiliary bud) are placed into MS agar (+3% sucrose) containing various concentrations of mesotrione (see above) from 0.02 to 2 ppm.
For experiment [2] the test system is unchanged. Briefly: Glasshouse spray test, visible damage. It is filed as in vivo. Here is the method:
(§3) Plants are 1) untransformed tobacco plants variety Samsun expressing the endogenous tobacco (control) HPPD gene, 2) tobacco plants transformed to express Pseudomonas HPPD according to the examples herein and 3) tobacco plants transformed to express Wheat HPPD also according to the examples herein.
(§4) Large numbers of plants are grown from seed in small pots in the glasshouse to the 5-7 leaf seedling stage and sprayed with a range of doses, suitably from 0.0 to 2000 g/ha, of different HPPD-inhibitor herbicides selected from compounds of Formula 1, 2, 3 and 4. Treatments are suitably Formulated in, for example, deionised water+0.5% Turbocharge™ surfactant or, alternatively, 50% acetone/water and applied at […] to a dozen or more replicates of each line and at each spray rate (where the plants were T1 plants (selfed progeny of primary transformants) and still segregating at normally 1:2:1) or, where, homozygous, 3-6 plants. The extent of visible damage in terms of bleaching of meristems and leaves, eventual necrosis and stunting of growth relative to unsprayed controls is assessed at ˜1 and 3 weeks after treatment. Data from susceptible segregants are excluded from the analysis. In summary, results obtained are as follows.

The test system of experiment [3] is untransformed tobacco plants variety Samsun. Briefly: Glasshouse spray test, visible damage. It is filed as in vivo. The settings on record: spray 0.0 to 2000 g/ha, assessed ~1 and 3 weeks after treatment. The method, then: as §3, §4
The subject of experiment [4] is tobacco plants transformed with Avena sativa 4-HPPD gene. Nature of the experiment: Tolerance of tobacco transformed with Avena sativa HPPD to herbicides. The settings on record: in vivo. The text has this:
The structure of the resulting vector is shown schematically in FIG. 4.
The 4-HPPD plant expression cassette is then ligated in to the binary vector pBin19 restricted with Hind III and EcoRI and transformed into E. coli TOP10 cells (Invitrogen). This binary vector is then transformed into tobacco using methods well known in the art and, for example, as described elsewhere herein.

Sequence of P. fluorescens HPPD (A0ACG8AE61 entry or part of it): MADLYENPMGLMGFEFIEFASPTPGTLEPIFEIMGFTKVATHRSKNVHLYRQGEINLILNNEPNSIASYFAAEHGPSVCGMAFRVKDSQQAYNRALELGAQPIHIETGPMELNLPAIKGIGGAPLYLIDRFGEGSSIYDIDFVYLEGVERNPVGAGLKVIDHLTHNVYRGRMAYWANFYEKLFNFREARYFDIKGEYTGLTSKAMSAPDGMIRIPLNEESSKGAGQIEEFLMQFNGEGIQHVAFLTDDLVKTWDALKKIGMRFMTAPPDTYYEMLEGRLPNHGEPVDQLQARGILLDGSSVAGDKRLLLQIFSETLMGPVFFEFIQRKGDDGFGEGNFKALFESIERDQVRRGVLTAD
Sequence of Wheat HPPD (A0A3B6NLC6 entry or part of it): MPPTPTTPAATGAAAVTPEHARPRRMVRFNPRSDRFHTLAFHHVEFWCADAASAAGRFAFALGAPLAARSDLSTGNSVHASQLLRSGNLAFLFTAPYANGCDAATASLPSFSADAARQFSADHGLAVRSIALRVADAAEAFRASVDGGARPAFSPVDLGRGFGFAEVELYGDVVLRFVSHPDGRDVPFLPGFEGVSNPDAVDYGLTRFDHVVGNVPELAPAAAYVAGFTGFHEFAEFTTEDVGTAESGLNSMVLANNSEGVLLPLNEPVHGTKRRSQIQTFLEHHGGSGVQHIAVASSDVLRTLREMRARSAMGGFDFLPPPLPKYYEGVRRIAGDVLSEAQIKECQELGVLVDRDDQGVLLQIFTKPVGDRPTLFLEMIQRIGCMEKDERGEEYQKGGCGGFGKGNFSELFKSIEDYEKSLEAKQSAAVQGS
Sequence of Avena HPPD (A0ACD5V6K6 entry or part of it): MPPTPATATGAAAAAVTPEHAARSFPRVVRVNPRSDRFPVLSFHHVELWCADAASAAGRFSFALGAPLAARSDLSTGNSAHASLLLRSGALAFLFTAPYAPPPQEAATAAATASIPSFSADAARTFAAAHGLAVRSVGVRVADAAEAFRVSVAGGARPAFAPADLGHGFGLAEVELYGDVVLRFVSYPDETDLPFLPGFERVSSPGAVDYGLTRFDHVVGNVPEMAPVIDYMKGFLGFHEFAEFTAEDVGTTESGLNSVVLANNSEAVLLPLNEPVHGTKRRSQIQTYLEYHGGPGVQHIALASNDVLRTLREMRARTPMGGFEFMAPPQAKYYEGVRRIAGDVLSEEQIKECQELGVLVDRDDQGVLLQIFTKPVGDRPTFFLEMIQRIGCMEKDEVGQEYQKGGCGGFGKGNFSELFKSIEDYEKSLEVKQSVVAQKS

What is called Kd is the constant that tells how readily two partners part at equilibrium. As to `CC1(C)C(=O)C(C(=O)c2ccc(Cl)cc2[N+](=O)[O-])C(=O)C(C)(C)C1=O` [Structure V, 2-[2-nitro-4-chlorobenzoyl]-4,4,6,6-tetramethylcyclohexane-1,3,5-trione], the Kd at Arabidopsis HPPD was 0.004 nM; on Wheat HPPD (Kd, without glycerol, Kd = koff/kon) it was 0.011 nM; on P. fluorescens HPPD (without glycerol, Kd = koff/kon, read-out: Kd), above 1.5 nM. The “ratio Kd4/Kd1, structure V to structure I” value on Arabidopsis HPPD was 0.28; at P. fluorescens HPPD, above 4.3. In addition, the koff is 1.25e-06 s⁻¹ at Arabidopsis HPPD (− glycerol), 4.2e-06 s⁻¹ at Wheat HPPD (− glycerol), above 0.0002 s⁻¹ at P. fluorescens HPPD (− glycerol) and below 4e-06 s⁻¹ on Avena HPPD.

In the case of `CS(=O)(=O)c1cc(C(F)(F)F)ccc1C(=O)c1cnoc1C1CC1` [isoxaflutole, 5-cyclopropyl-4-(2-methylsulphonyl-4-trifluoromethylbenzoyl)-isoxazole], the “resistance of the transgenic plants compared with that to mesotrione” value in experiment [1] and in experiment [4] was “substantially less resistant” throughout. The “fold less susceptible of mesotrione than of the named herbicide” value in experiment [2] is recorded as 4-10 fold. In experiment [3], the “fold more susceptible of the herbicide than of mesotrione” value is recorded as 1-2 fold.
